The values that follow are results of earlier work, collected in article PMC9298787 (The Prostate, 2021).

For this data set the following is noted: single oral 160 mg enzalutamide, fasting, three matched healthy controls.

“And” between values parts separate entries of the source, which are not always exact repeats. Equal entries are not always repeated.

On to `CNC(=O)c1ccc(N2C(=S)N(c3ccc(C#N)c(C(F)(F)F)c3)C(=O)C2(C)C)cc1F` [enzalutamide], for which the “AUC0‐∞” value was 245.8 µg·h/mL and 224.8 µg·h/mL; the Cmax (in general, the highest concentration seen after dosing) was 3800 ng/mL and 4600 ng/mL; the t1/2 was 115.3 h and 108.3 h and 111.6 h.
